Reference: paper PMC6281413, “Inhibition of breast cancer metastasis to the lungs with UBS109” (Oncotarget, 2018)
Where “and” joins values, the source holds several entries; their conditions need not be identical. Identical values can stand only once. Entries after “also recorded” stand apart in the source; their conditions may differ. Like-named read-outs stand apart in the source and are kept apart here.

What was measured:
[1] = test system: human pancreatic cancer cells MiaPaca-2, ASPC-1, PT45P1 and PT45P1/asTF+; design: method as in doi:10.14319/ijcto.32.19; conditions: cited from earlier work; for ranking of the cytotoxic activities: four human pancreatic cancer cell lines
[2] = test system: NCI-60 cancer cell line panel; design: method as in PMID 15210154, PMID 15711178, PMID 16722634; conditions: mean, read-out: mean growth inhibitory concentration GI50; cited from earlier work
[3] = test system: MDA-MB-231 xenografts in the lungs; assay: breast cancer lung metastasis (colonization) model, MDA-MB-231 cells injected into the tail vein; type: in vivo, athymic nude mice; conditions: for Lung weight (breast tumor nodules): n=4, ± S.D., vehicle control 296.6 ± 18.8
Method: The effect of UBS109 administration on lung metastasis was examined in mice bearing MDA-MB-231 xenografts in the lungs. Animals were administered therapeutic regimens of UBS109 by i.p. once/day 5 days/week (M-F) for 5 weeks, in the following groups: control vehicle, UBS109 at 5 mg/kg in vehicle, and UBS109 15 mg/kg in vehicle (n = 4). […] The cancer cells were mainly found in the lungs and some other sites. […] Treatment with UBS109 15 mg/kg appears the most efficacious in inhibiting tumors (lung colonies) (Figures 2 and 3). […] Lung weight was used to assess the breast cancer colony load present in the lungs of each mouse, since it is difficult to accurately count all colonies outside and inside in each lung.
Female athymic nude mice (nu/nu, Harlan Sprague-Dawley strain; 5-6 weeks old) were housed in a pathogen-free facility. All procedures and protocols were approved by the Institutional Animal Care and Use Committee at Emory University. Mice were randomized into […]: normal group (no tumor cells injected), lung metastasis model group (vehicle control), and two UBS109-treated groups with different dosages, 5 and 15 mg/kg body weight, 4 mice in each group.
Athymic nude mice were housed in a pathogen-free facility and were intravenously injected into the tail vein with breast cancer MDA-MB-231 bone metastatic cells (10^6 cells/mouse) to result in lung metastasis (colonization). One week following injection, mice were randomized to receive either vehicle (0.5% carboxymethyl cellulose sodium [CMC] with 10% DMSO in sterile water) or drug (UBS109). The agents (vehicle, UBS109 at 5 or 15 mg/kg body weight) were administered intraperitoneally (i.p.) daily 5 days per week for 5 weeks (n = 4 mice/regimen). CMC was dissolved in distilled water and sterilized by autoclaving. Due to chemical instability, a stock solution of the drugs was made fresh each time, by weighing out 100 mg UBS109 and dissolving it in 1 mL of 100% DMSO by briefly heating before making the appropriate dilution. […] Body weights were measured once a week.

[4] = body weight / toxicity during treatment in the lung metastasis model; type: in vivo, athymic nude mice
Method: Athymic nude mice were housed in a pathogen-free facility and were intravenously injected into the tail vein with breast cancer MDA-MB-231 bone metastatic cells (10^6 cells/mouse) to result in lung metastasis (colonization). One week following injection, mice were randomized to receive either vehicle (0.5% carboxymethyl cellulose sodium [CMC] with 10% DMSO in sterile water) or drug (UBS109). The agents (vehicle, UBS109 at 5 or 15 mg/kg body weight) were administered intraperitoneally (i.p.) daily 5 days per week for 5 weeks (n = 4 mice/regimen). CMC was dissolved in distilled water and sterilized by autoclaving. Due to chemical instability, a stock solution of the drugs was made fresh each time, by weighing out 100 mg UBS109 and dissolving it in 1 mL of 100% DMSO by briefly heating before making the appropriate dilution. After UBS109 administration for 5 weeks, animals were sacrificed. The lungs containing breast cancer tumors were weighed and fixed in 10% neutralized formalin for 48 h. Paraffin embedded blocks were stained with hematoxylin and eosin (H&E). Body weights were measured once a week.

[5] = pharmacokinetic study, single i.p. dose, plasma by LC/MS/MS; type: in vivo, CD-1 mice; conditions: 15 mg/kg i.p.
Method: Pharmacokinetic analysis of the plasma concentration time curve for each animal was conducted using noncompartmental analysis with WinNonlin® Version 6.3.0 (Figure 5). […] This is approximately […] in the blood of mice and, given the molecular weight of UBS109 of 291.4, yields a blood concentration of approximately 1.5 μM.
A pharmacokinetic (PK) study was performed by Agilux Laboratories Inc./Charles River laboratories, Inc. (Worcester, MA, USA). Male CD-1 mice (Harlan Laboratories, Inc.) weighing 28 ± 1.6 grams were used for the PK study. Three mice were administered a single i.p. dose of UBS109 15 mg/kg in 10% DMSO and 90% PBS.
A blood sample (approximately 35–40 μL) was taken from each animal from the tail vein at 4 different time points after dosing: 0.25, 0.5, 2, and 8 h (n=3 mice/time point). Samples were collected into K2EDTA-coated Microvette tubes (Sarstedt) on wet ice (protected from light) and processed to plasma by centrifugation (3500 rpm at 5°C) within 1 hour of collection. All plasma samples were transferred into separate 96 well plates (matrix tubes) and stored at −80°C until analysis for the parent drug by Agilux Laboratories/Charles River laboratories, Inc. via LC/MS/MS.
The plasma samples (10 μL) were deproteinated with acetonitrile (80 μL) and analyzed by LC/MS/MS using an internal standard (carbutamide) spiking technique with an AB SCIEX 6500+ system equipped with a Waters Acuity BEH C18 UPLC column (2 × 50 mm, 1.7 μm) operating at 55°C with mobile phases A (95:5:0.1 H2O:CAN:FA) and B (50:50:0.1 CAN:MeOH:FA). The corresponding time courses were 1.40 and 2.10 min (%MPB 95; Flow 0.800 mL/min) followed by a 2.80 min Strong Needle Rinse (25:25:25:25:0.1 (v:v:v:v:v) MeOH:ACN:IPA:H2O:NH4OH). The verified research grade bioanalytical assay method to determine the plasma concentrations of UBS109 (RGA Level 1) employed an API 6500+ electrospray, positive ion MS/MS device. The mean, standard deviation, and %CV of plasma levels were determined using Microsoft® Office Excel 2007. Mean concentration data was plotted against time to create plasma concentration versus time profiles at each dosage (Table 2 and Figure 5).
Pharmacokinetic analysis of the plasma concentration time curve for each animal was conducted using noncompartmental analysis with WinNonlin® Version 6.3.0. Areas under the curve (AUC) were estimated using the linear trapezoidal rule. The first order rate constant (Lambda Z) associated with the terminal (log-linear) elimination phase was estimated using linear regression of at least three nonzero concentrations versus time points in the late phase of the log concentration versus time profile. The half-life (t.) was calculated as ln(2)/Lambda Z. Nominal times were used in all the data analyses.

[6] = test system: MDA-MB-231 breast cancer cells; design: method as in PMID 24628271; conditions: at 1.25 μM, in vitro; cited from earlier work
[7] = design: method as in PMID 24628271, PMID 23933177, doi:10.14319/ijcto.32.19; conditions: cited from earlier work

NC1(c2ccc(-c3nc4ccn5c(=O)[nH]nc5c4cc3-c3ccccc3)cc2)CCC1 [Akt inhibitor]
ranking of the cytotoxic activities [1]: UBS109> EF24> HSP90 inhibitor> gemcitabine> Akt inhibitor> p38 MAPK inhibitor

O=C1/C(=C/c2ccccc2F)CNC/C1=C\c1ccccc1F [EF24, 3,5-bis(2-flurobenzylidene)piperidin-4-one]
GI50 [2]: 0.7 µM | ranking of the cytotoxic activities [1]: UBS109> EF24> HSP90 inhibitor> gemcitabine> Akt inhibitor> p38 MAPK inhibitor

CC(C)c1cc(-c2n[nH]c(=O)n2-c2ccc3c(ccn3C)c2)c(O)cc1O [HSP90 inhibitor]
ranking of the cytotoxic activities [1]: UBS109> EF24> HSP90 inhibitor> gemcitabine> Akt inhibitor> p38 MAPK inhibitor

CN1CC(=Cc2ccccn2)C(=O)C(=Cc2ccccn2)C1 [UBS109, 3,5-bis(2-pyridinylmethylidene)-1-methyl-4-piperidone]
effect on lung metastasis/colonization (tumor deposition in the lungs by weight) ([3]; 15 mg/kg i.p. once daily 5 days/week for 5 weeks): significantly reduced; also recorded: significantly inhibited; also recorded: inhibited lung metastases | Lung weight (breast tumor nodules) ([3]; UBS109 5 mg/kg i.p. once daily 5 days/week for 5 weeks): 285.9 ± 11.2 mg | Lung weight (breast tumor nodules) ([3]; UBS109 15 mg/kg i.p. once daily 5 days/week for 5 weeks, p<0.05 vs control): 226.6 ± 19.8 mg | toxicity judged from body weight ([4]; 5 or 15 mg/kg body weight i.p. once daily 5 days a week for 5 weeks): not toxic | body weight during treatment ([4]; 5 or 15 mg/kg i.p. once daily 5 days/week for 5 weeks, versus controls): did not lose weight; also recorded: remained the same as in the other groups | AUClast ([5]; individual mouse): 813 ng·h/mL and 116 ng·h/mL and 1061 ng·h/mL | Cmax ([5]; individual mouse): 398 ng/mL and 623 ng/mL and 835 ng/mL | Extrapolated (AUC) ([5]; individual mouse): 6.15% | Extrapolated (AUC) ([5]; mean (only mouse 2 reported)): 6.15% | T ½ ([5]; mean of mice (only mouse 2 reported)): 1.97 h | approximate concentration in the blood of mice ([5]; restated from Cmax): approximately 1.5 ng/ml | Cmax ([5]; male, CD-1, mouse, plasma, ip, 15 mg/kg, at 15 min post injection, read-out: maximal blood concentration (Cmax)): 432 ± 387 ng/mL | AUC(0-t) ([5]; male, CD-1, mouse, plasma, ip, 15 mg/kg, mean of 3 mice): 664 ng·h/mL | Cmax ([5]; male, CD-1, mouse, plasma, ip, 15 mg/kg, mean of 3 mice, read-out: Cmax): 619 ng/mL | Tmax ([5]; male, CD-1, mouse, plasma, ip, read-out: time of maximal blood concentration post injection (converted)): 0.25 h | AUC(0-inf) ([5]; male, CD-1, plasma, ip, individual mouse): 124 ng·h/mL | half-life ([5]; male, CD-1, plasma, ip, individual mouse, read-out: T ½ (converted)): 1.97 h | cell killing of MDA-MB-231 cells [6]: 100% | inhibition of all four pancreatic cancer cell lines ([1]; at 0.25 μM): 100% | ranking of the cytotoxic activities [1]: UBS109> EF24> HSP90 inhibitor> gemcitabine> Akt inhibitor> p38 MAPK inhibitor | water solubility relative to other MACs [7]: most water soluble among the MACs

N.N.[Cl][Pt][Cl] [cisplatin]
GI50 [2]: 9.5 µM

Nc1ccn([C@@H]2O[C@H](CO)[C@@H](O)C2(F)F)c(=O)n1 [gemcitabine]
ranking of the cytotoxic activities [1]: UBS109> EF24> HSP90 inhibitor> gemcitabine> Akt inhibitor> p38 MAPK inhibitor | maximal killing of pancreatic cancer cells ([1]; up to 20 μM used in the test): above 50%

diferuloylmethane [curcumin]
GI50 [2]: 7.3 µM
